Experimental data: patent US20240228572A1 (i2o Therapeutics, Inc., priority 2020, published 2024)
*1 amine or outer side, *2 acyl side, *3 side chain or, on linkers, in order; H or OH if unused. Where a SMILES comes first, the peptide text is derived from it. Side-chain parts run from the residue outwards. [ ]: non-standard residue; d: D form. The star is where a group is joined. C20 diacid = O=C(O)CCCCCCCCCCCCCCCCCCC(=O)*; γGlu = O=C(O)[C@H](CCC(=O)[*:2])N[*:1]; AEEA = NCCOCCOCC(=O)O; Aib = CC(C)(N)C(=O)O

Columns and labels:
[1] = Subcutaneous bolus injection pharmacokinetics / bioavailability in rats; format: in vivo; conditions: rat, plasma; SC bolus 0.11 mg/kg, male Sprague-Dawley rats
Protocol: Peptides were dissolved in sterile saline and administered to non-fasted male Sprague-Dawley rats (n=3 per group) at a dose of 0.1 mg/kg via a single bolus injection into the subcutaneous space between the scapulae. Blood samples (approximately 250 μL) were collected for pharmacokinetic analysis via a jugular vein cannula at 0.083, 0.25, 0.5, 1, 2, 4, 8, 24, 48, 72, 96, and 120 hr post-dose into microtainer tubes containing K2EDTA as anticoagulant and 25 μL of a protease inhibitor cocktail. Plasma was prepared by centrifugation and stored at −80° C. until analysis.
A 70 μL aliquot of each plasma sample was placed into to a 96-well plate. To each well was added 210 μL of 0.1% TFA in 2:1 ethanol:acetonitrile containing an appropriate internal standard. Plates were vortex mixed for 10 min at 1300 rpm, and then centrifuged for 10 min at 500× g. Supernatants (210 μL) were placed into a clean 96-well plate and evaporated under a nitrogen stream at 45° C. Residues were reconstituted in 80 μL of 20% acetonitrile (aq) containing 0.1% formic acid.
All calibration standards were prepared in control rat plasma containing K2EDTA and protease inhibitor cocktail.
Samples and standards were analyzed by electrospray ionization (ESI) UPLC-MS/MS using a system consisting of a CTC HTS PAL auto-injector (Leap, Carrboro, NC), an Agilent Infinity 1290 system with column oven (Palo Alto, CA), a Valco switching valve (Houston, TX), and a Sciex TripleTOF® 5600 mass spectrometer (Framingham, MA). Samples were injected onto a 2.1×50 mm reverse phase C18 analytical column, typically a Waters CORTECS UPLC C18+, 1.6 μm (Waters Corporation, Milford, MA) or similar. […] Initial conditions consisted of 95% A and 5% B. The organic component was increased to 95% B over a period of 3-4 minutes, depending on the peptide. Typical flow rates were 550 μL/min. The column temperature was held constant at 45° C. Peptides were quantified by monitoring one or more product ions produced from a multiply charged parent ion.

serum albumin = serum albumin (Macaca fascicularis, UniProt A2V9Z4); assay: Fraction unbound (fu) in plasma by surface plasmon resonance, monkey; format: in vitro ADME; conditions: SPR binding to serum albumin
Sequence of serum albumin (A2V9Z4 25-608): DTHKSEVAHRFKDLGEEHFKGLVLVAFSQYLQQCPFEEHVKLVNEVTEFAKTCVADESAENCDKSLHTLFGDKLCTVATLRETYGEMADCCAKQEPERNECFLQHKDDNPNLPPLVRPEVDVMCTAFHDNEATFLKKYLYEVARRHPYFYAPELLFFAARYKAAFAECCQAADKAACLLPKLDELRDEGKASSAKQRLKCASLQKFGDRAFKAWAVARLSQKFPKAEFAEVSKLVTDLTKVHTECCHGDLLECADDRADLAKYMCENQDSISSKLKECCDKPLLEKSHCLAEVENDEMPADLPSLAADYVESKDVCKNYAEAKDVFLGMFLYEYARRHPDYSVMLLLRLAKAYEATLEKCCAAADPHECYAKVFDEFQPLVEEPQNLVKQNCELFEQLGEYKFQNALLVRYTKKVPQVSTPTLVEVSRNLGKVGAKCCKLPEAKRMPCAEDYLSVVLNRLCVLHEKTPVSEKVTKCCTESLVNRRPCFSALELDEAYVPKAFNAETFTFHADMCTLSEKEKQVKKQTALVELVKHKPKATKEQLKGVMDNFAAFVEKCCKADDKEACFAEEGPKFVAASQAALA
Protocol: Conventional methods of measuring plasma protein binding, such as equilibrium dialysis, ultrafiltration and ultracentrifugation, are not reliable with peptides because of their tendency to adsorb to the surface of plastic tubing, dialysis membranes and molecular weight cut-off filters. As a result, the extent to which acylated peptides bind to serum albumin was evaluated using surface plasmon resonance (SPR).

hGIPR = molecular target: T1, hGIPR (Homo sapiens, UniProt P48546); assay: cAMP accumulation assay, hGIPR; format: cell-based
T1 sequence (P48546 22-466): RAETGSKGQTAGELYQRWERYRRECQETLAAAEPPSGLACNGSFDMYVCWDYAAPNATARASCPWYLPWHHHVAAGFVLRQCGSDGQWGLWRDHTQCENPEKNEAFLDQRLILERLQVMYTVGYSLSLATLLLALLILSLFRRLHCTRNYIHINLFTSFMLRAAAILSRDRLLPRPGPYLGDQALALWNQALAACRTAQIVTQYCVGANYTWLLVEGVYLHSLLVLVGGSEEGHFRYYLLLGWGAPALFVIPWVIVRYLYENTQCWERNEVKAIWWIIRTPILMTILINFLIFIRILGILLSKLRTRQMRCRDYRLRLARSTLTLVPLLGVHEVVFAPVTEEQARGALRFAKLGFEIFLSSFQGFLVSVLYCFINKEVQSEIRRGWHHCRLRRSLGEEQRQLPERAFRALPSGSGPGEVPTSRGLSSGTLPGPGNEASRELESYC
Protocol: On day 1, CHO-K1 cells were plated at 1.5 million cells per T75 flask in 90% F12-K media supplemented with 10% FBS. On day 3 cells were transfected with 40 mcg of each expression plasmid using Lipofectamine 2000 transfection reagent. On day 5, cells were dispensed at 1000 cells per well in white 384-well OptiPlates in 5 mcL of assay buffer consisting of 1×HBSS, 5 mM HEPES, 0.5 mM IBMX, and 0.1% casein.
Peptides were serially diluted 4-fold in assay buffer to final concentrations ranging from 1×10^−9 M to 9.5×10^−16 M. Two assay controls consisting of 50 mcM forskolin (cAMP system maximum) or assay buffer only (cAMP system minimum) were also prepared. Five microliters of each peptide-concentration, or assay control, was added to triplicate wells and incubated for thirty minutes at room temperature. […] Plates were read on an Envision fluorescent plate reader (PerkinElmer).
Test values were first normalized to the system maximum and system minimum averaged values in Excel using the formula: (test value−system min average)/(system max average -system min average)*100. […] Data from up to 3 replicate tests were analyzed for each peptide. […]

[2] = Metabolic stability in human kidney brush border membranes (kBBM); format: in vitro ADME; conditions: 1 mcM peptide, 50 mcg protein/mL, 37° C., pH 7.4, read-out: kBBM t½
Protocol: Brush border membranes from rat and human kidney tissue were prepared via centrifugation and stored at −70° C. Thawed stocks of rat or human kBBM were diluted to the appropriate concentration in 25 mM HEPES buffer (pH 7.4) containing 1% casein and aliquoted into a 96-well plate. The kBBM solutions were pre-warmed for 10 minutes at 37° C. Reactions were initiated by the addition of test peptide (1 mcM final concentration) also dissolved in 25 mM HEPES buffer (pH 7.4) containing 1% casein. The final concentration of kBBM in each incubation was 50 mcg protein/mL. Reactions were maintained at 37° C. in a shaking water bath. At 0, 0.25, 0.5, 1.0, 2.0, and 4.0 h post-initiation, 30 mcL of the reaction mixture was removed and placed into a 96-well plate containing 120 mcL of ice-cold methanol containing 2.5% formic acid. Quenched samples were centrifuged at 2178×g for 10 min and then a portion of the supernatants were transferred to a clean 96-well plate and diluted 1:1 with water.

For `CC(C)C[C@H](NC(=O)[C@H](Cc1ccc(O)cc1)NC(=O)[C@H](CCCCN)NC(=O)[C@H](CO)NC(=O)[C@H](Cc1ccc(O)cc1)NC(=O)[C@H](CC(=O)O)NC(=O)[C@H](CO)NC(=O)[C@@H](NC(=O)[C@H](Cc1ccccc1)NC(=O)[C@@H](NC(=O)CNC(=O)[C@H](Cc1c[nH]cn1)NC(=O)[C@H](CO)NC(=O)[C@@H](N)Cc1ccc(O)cc1)[C@@H](C)O)[C@@H](C)O)C(=O)N[C@@H](CC(=O)O)C(=O)NC(C)(C)C(=O)N[C@@H](CCCCN)C(=O)N[C@@H](Cc1ccc(O)cc1)C(=O)N[C@@H](C)C(=O)N[C@@H](CCC(N)=O)C(=O)N[C@@H](CCCCNC(=O)CC[C@H](NC(=O)CC[C@H](NC(=O)COCCOCCNC(=O)CCCCCCCCCCCCCCCCCCC(=O)O)C(=O)O)C(=O)O)C(=O)N[C@@H](Cc1ccccc1)C(=O)N[C@H](C(=O)NC(C)(C)C(=O)N[C@@H](Cc1c[nH]c2ccccc12)C(=O)N[C@@H](CC(C)C)C(=O)N[C@@H](CCC(=O)O)C(=O)N[C@@H](CC(=O)O)C(=O)N[C@@H](CCC(=O)O)C(=O)N1CCC[C@H]1C(=O)N[C@@H](CO)C(=O)N[C@@H](CO)C(=O)NCC(=O)N[C@@H](C)C(=O)N1CCC[C@H]1C(=O)N1CCC[C@H]1C(=O)N1CCC[C@H]1C(=O)N[C@@H](CO)C(=O)O)C(C)C` [Compound A6] (H-YSHGTFTSDYSKYLD[Aib]KYAQK([γGlu-γGlu-AEEA-C20 diacid])FV[Aib]WLEDEPSSGAPPPS-OH; N-terminus assumed), the Cmax [1] was 462 ng/mL, the Tmax [1] was 8 to 24 h and the bioavailability [1] was 94.9%. For the same compound, the half-life [1] was 15.8 h, the fraction unbound (serum albumin) was 0.0048 and the EC50 (hGIPR) was greater than 1 nM. It also gave a half-life at 1 mcM [2] greater than 72 h.
